Patent US6635650B2, “Substituted dimeric compounds” (Les Laboratoires Servier, priority 1999, dated 2003)

- melting point: 142 to 144 °C
SMILES: CC(=O)NCCc1cccc2ccc(OCCCCCCOc3ccc4cccc(CCNC(C)=O)c4c3)cc12 [Example 17, N-[2-(7-{[6-({8-[2-(Acetylamino)ethyl]-2-naphthyl}oxy)hexyl]oxy}-1-naphthyl)ethyl]acetamide]
